pIC50: −log10 of the molar value.
Assays:
STAT3-KO GBM cells = assay: Proliferation of STAT3-knockout GBM cells, Incucyte live cell analysis; format: cell-based
MT300 GBM cells = assay: Antiproliferative activity, CellTiter Glo assay, MT300 GBM cells; format: cell-based; settings: 72 h, read-out: IC50 (proliferation)
MCF7 breast cancer cells = assay: MTS cell viability assay in MCF7 breast cancer cells; format: cell-based; settings: 72 hours treatment, concentration not given
Method: MTS assay was used to determine the cell viability for all compounds tested. Computational docking scores were used to evaluate potential for STAT 3 inhibition (FIG. 9 and Table 3). MCF7 breast cancer cells were grown until 80-90% confluence. Cells were then transferred to a Costar 96-well plate with about 3000 cells per well. Cells were incubated for 24 hours. After incubation cells were treated with appropriate compounds and concentration for 72 hours. Twenty microliters of MTS solution was added to each well and incubated for 2 hours. The plate was then analyzed using […].

STAT1 = STAT1 (Homo sapiens (Human), UniProt P42224); assay: IFN-induced STAT1 phosphorylation in GBM cells (western blotting); format: cell-based
LN299 GBM cells = assay: Antiproliferative activity, CellTiter Glo assay, LN299 GBM cells; format: cell-based; settings: 72 h, unit misprinted as 'and', read-out: IC50 (proliferation)
MT330 glioma xenografts = assay: Orthotopic MT330 glioma xenografts in mice, bioluminescent imaging; format: in vivo; settings: 20 mg/Kg in DMSO, into the peritoneum three times per week, female mice, BLI
Method: BLI pictures were taken at Day 21.
In brief, 10^6 luciferase-expressing MT330 GBM cells were injected orthotopically into the brains of female […] mice. […] Tumor growth was monitored by BLI two times per week as we have previously described.

parental GBM cells = assay: Proliferation of parental (empty vector) GBM cells, Incucyte live cell analysis; format: cell-based; settings: parental (EV) GBM cells
STAT3 = STAT3 (Homo sapiens (Human), UniProt P40763); assay: Inhibition of IFN-induced STAT3 phosphorylation in GBM cells (western blotting); format: cell-based
STAT3, sequence (P40763 whole entry): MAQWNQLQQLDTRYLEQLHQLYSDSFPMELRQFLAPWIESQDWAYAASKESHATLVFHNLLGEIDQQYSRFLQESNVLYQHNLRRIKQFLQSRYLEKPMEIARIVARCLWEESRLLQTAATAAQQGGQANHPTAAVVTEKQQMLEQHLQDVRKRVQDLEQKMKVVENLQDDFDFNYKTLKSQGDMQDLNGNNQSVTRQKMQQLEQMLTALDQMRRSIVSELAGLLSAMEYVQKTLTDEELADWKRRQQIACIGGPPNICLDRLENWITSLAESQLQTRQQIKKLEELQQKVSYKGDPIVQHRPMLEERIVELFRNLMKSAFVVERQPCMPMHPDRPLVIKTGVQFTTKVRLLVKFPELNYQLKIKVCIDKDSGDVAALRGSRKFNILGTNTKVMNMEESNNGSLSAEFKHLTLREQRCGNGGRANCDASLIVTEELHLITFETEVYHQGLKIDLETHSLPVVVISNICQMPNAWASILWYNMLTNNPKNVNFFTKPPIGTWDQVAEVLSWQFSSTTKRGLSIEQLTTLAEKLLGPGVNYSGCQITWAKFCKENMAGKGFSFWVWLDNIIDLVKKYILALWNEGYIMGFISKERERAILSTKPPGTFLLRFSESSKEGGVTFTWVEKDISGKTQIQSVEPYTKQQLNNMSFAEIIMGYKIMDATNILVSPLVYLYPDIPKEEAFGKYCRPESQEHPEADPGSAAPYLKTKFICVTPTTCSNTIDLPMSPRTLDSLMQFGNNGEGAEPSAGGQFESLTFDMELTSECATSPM

STAT1, sequence (P42224 whole entry): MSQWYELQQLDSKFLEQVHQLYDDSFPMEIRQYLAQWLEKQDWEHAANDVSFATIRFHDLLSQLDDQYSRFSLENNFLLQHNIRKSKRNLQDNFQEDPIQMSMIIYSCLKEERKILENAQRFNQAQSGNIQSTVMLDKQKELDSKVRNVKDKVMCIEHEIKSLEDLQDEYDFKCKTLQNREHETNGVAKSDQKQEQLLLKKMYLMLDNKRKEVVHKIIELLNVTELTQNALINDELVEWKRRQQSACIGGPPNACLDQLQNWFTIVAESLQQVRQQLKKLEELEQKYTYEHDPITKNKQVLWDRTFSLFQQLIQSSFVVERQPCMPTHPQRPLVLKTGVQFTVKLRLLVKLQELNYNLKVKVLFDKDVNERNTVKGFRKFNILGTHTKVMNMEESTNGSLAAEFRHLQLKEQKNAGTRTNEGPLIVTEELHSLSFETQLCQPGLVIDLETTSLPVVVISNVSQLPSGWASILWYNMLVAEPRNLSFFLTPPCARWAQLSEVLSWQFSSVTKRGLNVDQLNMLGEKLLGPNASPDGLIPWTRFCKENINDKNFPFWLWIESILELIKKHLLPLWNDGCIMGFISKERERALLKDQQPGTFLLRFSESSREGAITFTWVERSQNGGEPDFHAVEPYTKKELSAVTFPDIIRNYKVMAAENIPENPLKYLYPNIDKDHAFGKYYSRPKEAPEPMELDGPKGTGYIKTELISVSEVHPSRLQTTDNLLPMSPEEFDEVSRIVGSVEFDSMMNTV

Structure (SMILES) | Antiproliferative effect (STAT3-KO GBM cells) | pIC50 (MT300 GBM cells) | Percent inhibition (MCF7 breast cancer cells) | Effect on STAT1 phosphorylation (STAT1) | pIC50 (LN299 GBM cells) | Effect on orthotopic GBM tumor xenografts (MT330 glioma xenografts) | Antiproliferative effect (parental GBM cells) | Inhibition of STAT3 phosphorylation (STAT3)
N#Cc1cc(Cc2ccccc2)sc1NC(=O)COc1ccccc1 [Compound 1, N-(5-benzyl-3-cyanothiophen-2-yl)-2-phenoxyacetamide] | resistant | 7.07 | 28.06% | no effect | 7.02 | markedly reduced | sensitive | –
N#Cc1cc(Cc2ccccc2)sc1NC(=O)COc1cccc(C(F)(F)F)c1 [Compound 6, N-(5-benzyl-3-cyanothiophen-2-yl)-2-(3-(trifluoromethyl)phenoxy)acetamide] | – | – | 51.00% | – | – | – | – | –
CC(C)(Oc1ccccc1)C(=O)Nc1sc(Cc2ccccc2)cc1C#N [Compound 7, N-(5-benzyl-3-cyanothiophen-2-yl)-2-methyl-2-phenoxypropanamide] | – | – | 23.33% | no effect | – | – | – | potently block STAT3 phosphorylation at submicromolar levels
N#Cc1cc(Cc2ccccc2)sc1NC(=O)c1cc2ccccc2o1 [Compound 5, N-(5-benzyl-3-cyanothiophen-2-yl)benzofuran-2-carboxamide] | – | – | 65.67% | no effect | – | – | – | potently block STAT3 phosphorylation at submicromolar levels

Reference: patent US20240368112A1, “BENZYLTHIOPHENE DERIVATIVES” (Rosalind Franklin University of Medicine & Science, priority 2021, published 2024)
